Test results taken from ChEMBL document CHEMBL1201862, “PubChem BioAssay data set” (2004).
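Values below derive from 48-hour exposures of cells grown in 96-well plates, with endpoints linearly interpolated between the two concentrations bracketing the appropriate inhibition level. GI50 is the concentration that inhibits growth by half.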 Calls of active or inactive are those of the source. Cut-off read from the data, not from the text of the source: active = GI50 up to about 1.1 µM and inactive = higher.

Columns and labels:
Assay in all cases: NCI-60 cell line screen, 48 h
EKVX = tested on: EKVX
OVCAR-4 = tested on: OVCAR-4
SNB-19 = tested on: SNB-19
SF-539 = tested on: SF-539
Malme-3M = tested on: Malme-3M
A549 = tested on: A549
NCI-H226 = tested on: NCI-H226
OVCAR-8 = tested on: OVCAR-8
SK-OV-3 = tested on: SK-OV-3
HCT-116 = tested on: HCT-116
K562 = tested on: K562
UACC-257 = tested on: UACC-257
HCC 2998 = tested on: HCC 2998
786-0 = tested on: 786-0
CCRF-CEM = tested on: CCRF-CEM
LOX IMVI = tested on: LOX IMVI

Measured: GI50

CC(C)(C)C1CCC(CI)(N=[N+]=[N-])CC1 (stereo not drawn)
inactive: EKVX > 100 µM | OVCAR-4 > 100 µM | SNB-19 > 100 µM | SF-539 > 100 µM | Malme-3M > 100 µM | A549 > 100 µM | NCI-H226 > 100 µM | OVCAR-8 > 100 µM | SK-OV-3 > 100 µM | HCT-116 > 100 µM | K562 > 100 µM | UACC-257 > 100 µM | HCC 2998 > 100 µM | 786-0 > 100 µM | CCRF-CEM > 100 µM

O=C1OC(c2ccc(Cl)c3ccccc23)c2ccccc21 (stereo not drawn)
inactive: EKVX > 100 µM | OVCAR-4 63.5 µM | SNB-19 > 100 µM | SF-539 > 100 µM | Malme-3M > 100 µM | A549 76.7 µM | OVCAR-8 > 100 µM | SK-OV-3 > 100 µM | HCT-116 91.2 µM | K562 55.7 µM | UACC-257 > 100 µM | HCC 2998 91.2 µM | 786-0 67.6 µM | CCRF-CEM 91.6 µM

Cc1[nH]c(=O)nc(N/N=C/c2ccc(O)cc2)c1C(=O)Nc1ccc(Cl)cc1
inactive: EKVX > 100 µM | OVCAR-4 > 100 µM | SNB-19 > 100 µM | SF-539 > 100 µM | Malme-3M > 100 µM | A549 > 100 µM | NCI-H226 65.2 µM | OVCAR-8 > 100 µM | SK-OV-3 > 100 µM | HCT-116 > 100 µM | K562 > 100 µM | UACC-257 > 100 µM | HCC 2998 > 100 µM | 786-0 > 100 µM | CCRF-CEM > 100 µM

N#CC(C(=O)/C(=N/NC(=O)c1ccccc1O)C(C#N)c1ccc(Cl)cc1)c1ccc(Cl)cc1 (stereo not drawn)
inactive: EKVX 22.4 µM | OVCAR-4 18.1 µM | SNB-19 15 µM | SF-539 17.3 µM | Malme-3M 12.4 µM | A549 24.6 µM | NCI-H226 16.9 µM | OVCAR-8 13.4 µM | SK-OV-3 30.8 µM | HCT-116 17.4 µM | LOX IMVI 14.3 µM | K562 19.2 µM | UACC-257 14.6 µM | 786-0 15.9 µM | CCRF-CEM 4.26 µM

CCN(CC)CCNc1ccc2nnn3c4ccc(C)cc4c(=O)c1c23
inactive: OVCAR-4 12.1 µM | SNB-19 12.7 µM | SF-539 6.14 µM | Malme-3M 12.6 µM | A549 5.37 µM | NCI-H226 10.8 µM | OVCAR-8 5.22 µM | SK-OV-3 10.9 µM | HCT-116 3.78 µM | LOX IMVI 3.61 µM | K562 8.24 µM | UACC-257 13.2 µM | 786-0 5.66 µM | CCRF-CEM 4.16 µM

COc1ccc2c(c1)C1C(CO2)C(c2ccccc2)=NN1c1ccccc1 (stereo not drawn)
inactive: EKVX > 100 µM | SF-539 > 100 µM | Malme-3M > 100 µM | A549 > 100 µM | OVCAR-8 > 100 µM | SK-OV-3 > 100 µM | HCT-116 > 100 µM | LOX IMVI > 100 µM | K562 > 100 µM | UACC-257 > 100 µM | HCC 2998 > 100 µM | 786-0 > 100 µM | CCRF-CEM > 100 µM

N#CC(C(=O)/C(=N\NC(N)=O)C(C#N)c1ccccc1)c1ccccc1 (stereo not drawn)
inactive: EKVX > 100 µM | OVCAR-4 > 100 µM | SNB-19 > 100 µM | SF-539 > 100 µM | Malme-3M > 100 µM | A549 > 100 µM | NCI-H226 > 100 µM | OVCAR-8 > 100 µM | SK-OV-3 > 100 µM | HCT-116 > 100 µM | K562 > 100 µM | UACC-257 > 100 µM | HCC 2998 > 100 µM | 786-0 > 100 µM | CCRF-CEM > 100 µM

CCOc1ccc(/C=C(\Cl)c2ccc(OC)c(OC)c2)cc1
inactive: EKVX 80.4 µM | OVCAR-4 33.3 µM | SNB-19 > 100 µM | SF-539 > 100 µM | Malme-3M 58.9 µM | A549 35.2 µM | NCI-H226 33.1 µM | OVCAR-8 63.8 µM | SK-OV-3 77.1 µM | HCT-116 32.6 µM | K562 30.8 µM | UACC-257 21 µM | HCC 2998 41.6 µM | 786-0 > 100 µM | CCRF-CEM 37.1 µM

c1ccc(CN(Cn2cccn2)Cn2cccn2)nc1
inactive: EKVX > 100 µM | OVCAR-4 > 100 µM | SNB-19 > 100 µM | A549 > 100 µM | OVCAR-8 > 100 µM | SK-OV-3 > 100 µM | HCT-116 61.5 µM | LOX IMVI > 100 µM | K562 > 100 µM | UACC-257 > 100 µM | 786-0 > 100 µM | CCRF-CEM > 100 µM

COC(=O)C1CC/C(=N/C2c3ccccc3-c3ccccc32)N1 (stereo not drawn)
inactive: EKVX > 100 µM | OVCAR-4 > 100 µM | SNB-19 > 100 µM | Malme-3M > 100 µM | A549 > 100 µM | NCI-H226 > 100 µM | OVCAR-8 > 100 µM | SK-OV-3 > 100 µM | HCT-116 > 100 µM | LOX IMVI > 10 µM | K562 > 100 µM | UACC-257 > 100 µM | HCC 2998 57.9 µM | 786-0 > 100 µM | CCRF-CEM 58.6 µM
